Laboratory results: PubChem BioAssay AID1963973 (Molecular Pharmacology Branch, DTP, NCI, 2024)
“And” between values parts separate entries of the source, which are not always exact repeats. Equal values may be shown once.

Test system: 883617-216-R-J1-PDC tumor spheroids, viability
Assay: Anticancer human tumor 883617-216-R-J1-PDC patient-derived bladder carcinoma cell line growth inhibition [PI3K]
Conditions: spheroids with HUVEC and MSC; for viability, T/C: stronger effect = lower value
Description: Combinatorial screen of targeted agents with the PI3K inhibitors inavolisib, alpelisib, duvelisib, and copanlisib in multi-cell type tumor spheroids
A high-throughput screen of multi-cell type tumor spheroids was designed to identify active combinations of targeted small molecules and PI3K pathway inhibitors. Complex spheroids include a stromal component modeled by human endothelial cells (HUVEC) and fibroblasts modeled by human mesenchymal stem cells (MSCs). The concentration ranges selected for each drug and investigational agent were based upon clinically achievable concentrations if the clinical Cmax of the agent was known.
Compounds. The drugs and investigational agents: inavolisib (NSC800729), alpelisib (NSC765974), duvelisib (NSC772469), copanlisib (NSC816437), ipatasertib (NSC767898), afuresertib (NSC778305), talazoparib (NSC767125), sapanisertib (NSC764658), selumetinib (NSC741078), tovorafenib (DAY101, NSC766906), vemurafenib (NSC761431), ravoxertinib (NSC781343), sotorasib (NSC818433), MRTX1133 (NSC 836407), abemaciclib (NSC 768073), palbociclib (NSC758247), venetoclax (NSC 766270), SY5609 (NSC837396), enzalutamide (NSC755605), and darolutamide (NSC825331), were obtained from the National Cancer Institute (NCI) Developmental Therapeutics Program Chemical Repository. The FDA-approved anticancer drug set is available from the NCI Developmental Therapeutics Program. […] The stock solutions were prepared in dimethyl sulfoxide (DMSO, Sigma-Aldrich, St. Louis, MO, cat. D2650) at 800-fold the tested concentration and stored at -70 degrees C prior to their use. All drugs and investigational agents were tested over a range starting from a high concentration at or near the clinical Cmax and decreasing in half-log increments. If the clinical Cmax for an agent had not been determined, the highest concentration tested was 10 microM.
Cell Culture. All cells were maintained in an incubator at 37 degrees C and 5% CO2 with 95% humidity. The PDC lines were cultured according to standard operating procedures established by the NCI PDMR (https://pdmr.cancer.gov/sops/default.htm). All PDCs were thawed and cultured in Matrigel-coated flasks prepared with a working solution of 1X Ham's F-12 nutrient mix, without supplementation (Invitrogen, Waltham, MA, cat. 11765054), 100 U/mL penicillin-streptomycin (Invitrogen, cat. 15140122), and 2.5% Matrigel (Corning Inc., Corning, NY, cat. 354248) for the first three passages. The 354836-022-R-J1-PDC, 475296-252-R-J1-PDC, and 997726-040-R-J2-PDC lines were cultured in 6A media, which includes advanced DMEM/F-12 (Thermo Fisher Scientific, cat. 12634028), 10 mM HEPES (Thermo Fisher Scientific, cat. 15630080), 1X GlutaMAX supplement (Thermo Fisher Scientific, cat. 35050061), 0.1 mg/mL primocin (InvivoGen, San Diego, CA, cat. ant-pm-2), 10% defined fetal bovine serum, heat inactivated (HyClone Laboratories Inc., Logan, UT, cat. SH30070.03HI), 50% L-WRN conditioned media (ATCC, cat. CRL-3276), 1.25 mM N-Acetyl-L-cysteine (Sigma-Aldrich, cat. A9165), 10 mM nicotinamide (Sigma-Aldrich, cat. N0636), 1X B-27 supplement (Thermo Fisher Scientific, cat. 17504044), 1X N-2 supplement (Thermo Fisher Scientific, cat. 17502048), and 10 microM Y-27632 dihydrochloride (Tocris Bioscience, Bristol, United Kingdom, cat. 1254). The 624824-186-R-J2-PDC line was cultured in 6C/Colon 1B media, which includes all 6A media components plus 50 ng/mL human EGF recombinant protein (Thermo Fisher Scientific, cat. PHG0311). […]

[1] = compound alone, run of 04/24/2023
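Also: spheroids exposed to agents for 7 days before the viability read.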

Row | Compound | viability, T/C (compound 0.0316 µM) | viability, T/C (compound 0.1 µM) | viability, T/C (compound 0.316 µM) | viability, T/C (compound 1 µM) | viability, T/C (compound 3.16 µM) | viability, T/C (compound 10 µM) | viability, T/C (compound 0.00316 µM) | viability, T/C (compound 0.01 µM) | IC50 (curve of compound) | further results
1 | C=CC(=O)N1CCN(c2nc(=O)n(-c3c(C)ccnc3C(C)C)c3nc(-c4c(O)cccc4F)c(F)cc23)C(C)C1 (centres undefined) | 61.8% [middle of 4 runs] | 48% [middle of 4 runs] | 51.2% [middle of 4 runs] | 58.9% [middle of 4 runs] | 74.7% [middle of 4 runs] | 66.4% [middle of 4 runs] | – | – | – | –
2 | CC(=O)c1c(C)c2cnc(Nc3ccc(N4CCNCC4)cn3)nc2n(C2CCCC2)c1=O | 71.2% [middle of 4 runs] | 47.9% [middle of 4 runs] | – | – | – | – | 76.6% [middle of 4 runs] | 87.7% [middle of 4 runs] | 0.0985 µM and > 0.1 µM and 0.0797 µM | viability, T/C (compound 0.000316 µM): 109% [middle of 4 runs]; viability, T/C (compound 0.001 µM): 91.3% [middle of 4 runs]
3 | CC(C)NCC(C(=O)N1CCN(c2ncnc3c2C(C)CC3O)CC1)c1ccc(Cl)cc1 (centres undefined) | 93.7% [middle of 4 runs] | 77.3% [middle of 4 runs] | 68.3% [middle of 4 runs] | 40.5% [middle of 4 runs] | 17.1% [middle of 4 runs] | 7.67% [middle of 4 runs] | – | – | 591 nM [middle of 4 runs] | –
4 | CC(C)n1nc(-c2ccc3oc(N)nc3c2)c2c(N)ncnc21 | 47.2% [middle of 4 runs] | 20.2% [middle of 4 runs] | – | – | – | – | 87.5% [middle of 4 runs] | 73% [middle of 4 runs] | 27.6 nM [middle of 4 runs] | viability, T/C (compound 0.000316 µM): 95.2% [middle of 4 runs]; viability, T/C (compound 0.001 µM): 90.4% [middle of 4 runs]
5 | CC(Nc1ccc2c(c1)OCCn1cc(N3C(=O)OCC3C(F)F)nc1-2)C(N)=O (centres undefined) | 71.5% [middle of 8 runs] | 40.2% [middle of 8 runs] | 29.8% [middle of 8 runs] | 18.9% [middle of 8 runs] | – | – | 96.5% [middle of 8 runs] | 91.7% [middle of 8 runs] | – | IC50 [1]: 72 nM [middle of 8 runs]
6 | CC(Nc1ncnc2nc[nH]c12)c1cc2cccc(Cl)c2c(=O)n1-c1ccccc1 (centres undefined) | 98.3% [middle of 8 runs] | 95.9% [middle of 8 runs] | 94.8% [middle of 8 runs] | 85.6% [middle of 8 runs] | 66.2% [middle of 8 runs] | 50.7% [middle of 8 runs] | – | – | – | –
7 | CC1(C)CCC(CN2CCN(c3ccc(C(=O)NS(=O)(=O)c4ccc(NCC5CCOCC5)c([N+](=O)[O-])c4)c(Oc4cnc5[nH]ccc5c4)c3)CC2)=C(c2ccc(Cl)cc2)C1 | 105% [middle of 4 runs] | – | – | 94.3% [middle of 4 runs] | 92.8% [middle of 4 runs] | – | – | – | > 10 µM and 5.36 µM and 5.66 µM | –
8 | CC1(C)CCC(Nc2ncc(C(F)(F)F)c(-c3c[nH]c4c(P(C)(C)=O)c(C#N)ccc34)n2)CN1 (centres undefined) | 38% [middle of 4 runs] | 31.7% [middle of 4 runs] | 28.7% [middle of 4 runs] | 30% [middle of 4 runs] | 16.9% [middle of 4 runs] | 0.37% [middle of 4 runs] | – | – | < 0.0316 µM | –
9 | CCCS(=O)(=O)Nc1ccc(F)c(C(=O)c2c[nH]c3ncc(-c4ccc(Cl)cc4)cc23)c1F | 99.5% [middle of 4 runs] | 98.2% [middle of 4 runs] | 97% [middle of 4 runs] | – | 73.8% [middle of 4 runs] | 9.39% [middle of 4 runs] | – | – | 4.76 µM [middle of 4 runs] | –
10 | CCN1CCN(Cc2ccc(Nc3ncc(F)c(-c4cc(F)c5nc(C)n(C(C)C)c5c4)n3)nc2)CC1 | 75.5% [middle of 4 runs] | 59% [middle of 4 runs] | 56.6% [middle of 4 runs] | 47.2% [middle of 4 runs] | – | – | 92% [middle of 4 runs] | 78.9% [middle of 4 runs] | – | –
11 | CNC(=O)c1ccc(N2C(=S)N(c3ccc(C#N)c(C(F)(F)F)c3)C(=O)C2(C)C)cc1F | 94.7% [middle of 4 runs] | – | 99.7% [middle of 4 runs] | 98.9% [middle of 4 runs] | 101% [middle of 4 runs] | – | – | – | > 10 µM | –
12 | COc1c(OCCCN2CCOCC2)ccc2c3n(c(=NC(=O)c4cnc(N)nc4)nc12)CCN3 | 40% [middle of 8 runs] | 15.4% [middle of 8 runs] | 4.37% [middle of 7 runs] | 3.24% [middle of 8 runs] | – | – | 93.8% [middle of 8 runs] | 70.5% [middle of 8 runs] | – | IC50 (compound alone, run of 04/25/2023): 20.7 nM [middle of 8 runs]
13 | Cc1nc(NC(=O)N2CCCC2C(N)=O)sc1-c1ccnc(C(C)(C)C(F)(F)F)c1 (centres undefined) | 92.1% [middle of 8 runs] | 74.7% [middle of 8 runs] | 49.1% [middle of 8 runs] | 28.3% [middle of 8 runs] | 12.5% [middle of 8 runs] | 7.52% [middle of 8 runs] | – | – | – | IC50 [1]: 316 nM [middle of 8 runs]
14 | Cn1cnc2c(F)c(Nc3ccc(Br)cc3Cl)c(C(=O)NOCCO)cc21 | – | – | – | – | – | – | – | – | 52.5 nM [middle of 4 runs] | viability, T/C (compound 0.00949 µM): 73.6% [middle of 4 runs]; viability, T/C (compound 0.03 µM): 54.3% [middle of 4 runs]; viability, T/C (compound 0.0949 µM): 43.7% [middle of 4 runs]; viability, T/C (compound 0.3 µM): 32.2% [middle of 4 runs]; viability, T/C (compound 0.949 µM): 34.6% [middle of 4 runs]; viability, T/C (compound 3 µM): 20.2% [middle of 4 runs]
15 | Cn1ncc(Cl)c1-c1cc(C(=O)NC(CN)Cc2cccc(F)c2)sc1Cl (centres undefined) | 98.2% [middle of 4 runs] | 85% [middle of 4 runs] | 63.8% [middle of 4 runs] | 34.5% [middle of 4 runs] | 13.8% [middle of 4 runs] | – | – | – | 571 nM [middle of 4 runs] | –
16 | Cn1nccc1Nc1nccc(-c2ccn(C(CO)c3ccc(Cl)c(F)c3)c(=O)c2)n1 (centres undefined) | 93.7% [middle of 4 runs] | 86.5% [middle of 4 runs] | 87.2% [middle of 4 runs] | 79.5% [middle of 4 runs] | 65.8% [middle of 4 runs] | 58.5% [middle of 4 runs] | – | – | > 10 µM and 8.22 µM | –
17 | Cn1ncnc1[C@H]1c2n[nH]c(=O)c3cc(F)cc(c23)N[C@@H]1c1ccc(F)cc1 | 75.7% [middle of 4 runs] | 58.2% [middle of 4 runs] | – | – | – | – | 91.6% [middle of 4 runs] | 84.4% [middle of 4 runs] | > 0.1 µM | viability, T/C (compound 0.000316 µM): 92.5% [middle of 4 runs]; viability, T/C (compound 0.001 µM): 88.8% (2×) and 83.1% and 89.6%
